Experimental data published in patent US20250275964A1, “METHODS OF INHIBITING LIVER-TYPE GLUTAMINASE, GLS2” (CORNELL UNIVERSITY, priority 2019, published 2025).
Values joined by “and” are separate entries in the source; they are usually repeats but may differ in a detail not shown here. Identical values can stand only once.

Columns and labels:
DU4475 cells = experiment: 6-day cell proliferation assay, DU4475; format: cell-based, human; conditions: DU4475, proliferation over 6 days
Protocol: (§1) Human breast cancer cell lines MCF7, BT-474, T-47D, MDA-MB-453, MDA-MB-231, Hs 578T, HCC38, SK-BR-3, and DU4475 were purchased from the American Type Culture Collection (ATCC) and no additional cell authentication was performed. The TSE human breast cancer cell line was supplied by Dr. Steven Abcouwer (University of Michigan). All breast cancer cells were cultured at 37° C. under a 5% CO2 atmosphere in RPMI 1640 medium containing 2 mM glutamine (Gibco) and supplemented with 10% fetal bovine serum (FBS) (Gibco). The 293T cell line (ATCC) used for generating lentivirus particles was cultured as above but using DMEM, high glucose (Gibco).
(§2) Culture medium was added to 12-well plates (1 ml/well) and wells were seeded with cells at Day 0 as follows. MCF7, T-47D, BT-474, HCC38 cells: […] cells/well. MDA-MB-453 and MDA-MB-231 cells: 1×10^4 cells/well. TSE and Hs 578T cells: 0.3×10^4 cells/well. After 16 hours, culture medium was replaced with fresh medium supplemented with appropriate concentrations of inhibitors and was subsequently replaced every 48 hours. On Day 6 cells were trypsinized and suspended in an appropriate volume of culture medium, and the total number of cells per well was determined using a hemocytometer or a TC20 Automated Cell Counter (Bio-Rad).

[1] = molecular target: T1, recombinant full-length human GLS2 (Homo sapiens, UniProt Q9UI32); experiment: Real-time recombinant glutaminase activity assay, GLS2; format: biochemical
T1 construct: GLS2 (residues 38 to 602) in E. coli; inferred from pQE80 vector and Ni-NTA/imidazole purification; made in house; host or cells: E. coli BL21(DE3)
T1 sequence (Q9UI32 38-602): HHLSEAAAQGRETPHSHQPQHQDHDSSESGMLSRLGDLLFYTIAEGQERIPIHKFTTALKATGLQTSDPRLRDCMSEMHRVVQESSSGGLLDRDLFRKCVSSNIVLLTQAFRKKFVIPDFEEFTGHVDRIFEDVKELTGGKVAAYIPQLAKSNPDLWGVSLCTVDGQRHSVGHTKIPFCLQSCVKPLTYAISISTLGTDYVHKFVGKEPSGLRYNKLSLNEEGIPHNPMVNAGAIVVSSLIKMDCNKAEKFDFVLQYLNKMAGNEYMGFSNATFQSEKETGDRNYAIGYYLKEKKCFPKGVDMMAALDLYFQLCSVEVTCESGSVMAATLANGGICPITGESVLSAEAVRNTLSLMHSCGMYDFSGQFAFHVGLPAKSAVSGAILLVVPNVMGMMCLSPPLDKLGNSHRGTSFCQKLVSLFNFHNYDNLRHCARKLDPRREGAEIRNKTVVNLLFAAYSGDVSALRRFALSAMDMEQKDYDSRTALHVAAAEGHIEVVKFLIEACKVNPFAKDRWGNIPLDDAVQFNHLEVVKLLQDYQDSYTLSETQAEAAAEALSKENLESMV
Protocol: Real-time monitoring of glutaminase activity through NADH production was performed on a Cary Eclipse fluorescence spectrometer. The excitation and emission wavelengths were set at 340 nm and 460 nm, respectively. To a 1 ml cuvette, 900 μl of assay buffer was added, followed by 10 μl of GDH, 40 μl of 50 mM NAD and 20 μl of either DMSO or various dilutions of 968. Then, 100 μl of either 100 nM GAC or 500 nM GLS2 was added to this mixture and the fluorescence emission was monitored in real time. After 30 s, 200 μl of a mixture of glutamine and K2HPO4 was added such that the final concentrations of K2HPO4 and glutamine were 100 mM and 20 mM, respectively. The initial velocity of glutamine hydrolysis was obtained from the slopes of the linear portion of the kinetic curve.
Recombinant GAC and GLS2 were expressed in E. coli as described in Huang et al., “Characterization of the Interactions of Potent Allosteric Inhibitors with Glutaminase C, a Key Enzyme in Cancer Cell Glutamine Metabolism,” J. Biol. Chem. 293:3535-3545 (2018), which is hereby incorporated by reference in its entirety. Briefly, E. coli strain BL21(DE3) (Thermo Fisher Scientific) were transformed with vector pQE80-GAC-72-598 or with pQE80-GLS2-38-602 to express the processed forms of GAC and GLS2, respectively. For both constructs, expression was induced with 0.3 mM IPTG for 20 hours at 18° C., and cells were then harvested by centrifugation and lysed by sonication in binding buffer (500 mM NaCl, 50 mM Tris-HCl pH 8.5, 10 mM imidazole, 5 mM β-mercaptoethanol, 1 mM benzamidine chloride). The lysate was centrifuged, and the supernatant applied to a Ni-NTA column which was then washed with 100 column volumes of binding buffer followed by 10 volumes of wash buffer (500 mM NaCl, 50 mM Tris-HCl pH 8.5, 40 mM imidazole, 5 mM β-mercaptoethanol, 1 mM benzamidine chloride). Protein was eluted with 5 column volumes of elution buffer (500 mM NaCl, 300 mM imidazole-HCl pH 7.5, 5 mM β-mercaptoethanol, 1 mM benzamidine chloride). The eluate was centrifugally concentrated and then further purified by FPLC using a HiLoad 16/600 Superdex 200 column (GE Healthcare) with 150 mM NaCl, 5 mM Tris-HCl pH 7.5.

TSE cells = experiment: 6-day cell proliferation assay, TSE; format: cell-based, human
Protocol: as §1, §2

HCC38 cells = experiment: 6-day cell proliferation assay, HCC38; format: cell-based, human; conditions: HCC38, proliferation over 6 days
Protocol: as §1, §2

[2] = TSE (parental), compared with GLS2 clones, 6 days

SMILES | EC50 (DU4475 cells) [µM] | inhibition of recombinant GLS2 activity ([1]; different concentrations) | EC50 (TSE cells; [2]) [µM] | EC50 (TSE cells; TSE, proliferation over 6 days) [µM] | EC50 (HCC38 cells) [µM] | inhibition of recombinant GLS2 activity ([1]; at 50 μM, NADH fluorescence in real time) | selectivity for GLS2 over GLS ([1]; purified recombinant glutaminases)
O=C(Cc1ccccc1)Nc1nnc(CCSCCc2nnc(NC(=O)Cc3ccccc3)s2)s1 [BPTES] | > 20 | resistance | 3 | 3.1 | 4.7 |  | 
CN(C)c1ccc(C2Nc3ccc4ccccc4c3C3=C2C(=O)CC(C)(C)C3)cc1Br (stereo not drawn) [Compound 968] | 4 | inhibited | 4 | 5 | 4 | completely blocks activity | > 3 fold and ~3 fold
